Counter-ions that a name gives are not always drawn.
Columns and labels:
[1] = test system: Iron-induced Lipid Peroxidation in Rat Brain Homogenates; experiment: Assay of lipid peroxidation (TBA method); format: biochemical, Wistar rats; conditions: for Inhibition (%) 0.005 mM / Inhibition (%) 0.05 mM / Inhibition % (0.5 mM) / Inhibition (%) 5 mM: Mean ± S.E., n = 4; for Inhibition (%) 0.005 mM / efficiency in lipid peroxidation inhibition versus ascorbic acid, (+)-α-tocopherol and mitoxantrone (in words): 0.005 mM; for Inhibition % (0.5 mM) / inhibitory effect on lipid peroxidation compared to ascorbic acid, (+)-α-tocopherol and mitoxantrone (in words): 0.5 mM
Protocol: The inhibitory effect on lipid peroxidation of these compounds were evaluated with rat brain phospholipid liposomes which provide an ideal model system for lipid peroxidation studies by Teng C. M., et. al., Eur. J. Pharmacol., vol. 303, pp. 129-139 (1996).
Assay of Lipid Peroxidation. Rat brain homogenate was prepared from the brains of freshly killed Wistar rats and its peroxidation in the presence of iron ions was measured by the thiobarbituric acid (TBA) method as described. The extent of lipid peroxidation was estimated as thiobarbituric acid-reactive substances and was read at 532 nm in a spectrophotometer (Shimadzu UV-160).

[2] = test system: Chinese Hamster Ovary (CHO) Cells; experiment: Cytotoxic activity test (cell proliferation assay), CHO cells as normal cells; format: cell-based; conditions: for IC50: Cricetulus griseus, 50% inhibition of cellular growth following 48 h of drug exposure; for toxicity in CHO compared with mitoxantrone (in words): versus mitoxantrone
Text: (§1) We evaluated the ability of the compounds to inhibit the growth of human oral epidermoid carcinoma cells (KB cell line), human cervical carcinoma cells of ME 180 (GBM8401) and Chinese hamster ovary (CHO) cells as normal cells, and lipid peroxidation in model membranes, respectively.
(§2) Cytotoxic Activity Test. Human oral epidermoid carcinoma cells (KB cell line), human cervical carcinoma cells of ME 180 (GBM8401) and Chinese hamster ovary (CHO) cells grown in plateau phase were cultivated, and the cell proliferation assay was performed as previously described. Inhibition of cellular growth was calculated by comparison of the mean values of the test compound (N=3) with the control (N=6-8) activity: (1-test compound/control)×100.

[3] = test system: Human Cervical Carcinoma Cells of ME 180 (GBM8401); experiment: Cytotoxic activity test (cell proliferation assay), GBM8401 cells; format: cell-based; conditions: for IC50: Homo sapiens, ME-180, GBM8401 cells, 50% inhibition of cellular growth following 48 h of drug exposure
Text: as §1, §2

[4] = test system: Human Oral Epidermoid Carcinoma Cells (KB cell line); experiment: Cytotoxic activity test (cell proliferation assay), KB cells; format: cell-based; conditions: 50% inhibition of cellular growth following 48 h of drug exposure
Text: as §1, §2

Compound	Inhibition (%) 0.005 mM ([1]; Table 3)	Inhibition (%) 0.05 mM ([1]; Table 3)	Inhibition % (0.5 mM) ([1]; Table 2)	Inhibition % (0.5 mM) ([1]; Table 3)	Inhibition (%) 5 mM ([1]; Table 3)	IC50 [2]	toxicity in CHO compared with mitoxantrone (in words) [2]	IC50 [3]	IC50 [4]	cytotoxicity on GBM in vitro assay (in words) [3]	efficiency in lipid peroxidation inhibition versus ascorbic acid, (+)-α-tocopherol and mitoxantrone (in words) [1]	inhibitory effect on lipid peroxidation compared to ascorbic acid, (+)-α-tocopherol and mitoxantrone (in words) [1]
Cc1c(C)c2c(c(C)c1O)CC[C@@](C)(CCC[C@H](C)CCC[C@H](C)CCCC(C)C)O2 [(+)-α-tocopherol, reference compound]	0%	0%	53 ± 4.4%	53 ± 1.7%	100%							
COC1c2cccc(Cl)c2C(=O)c2cccc(Cl)c21 (centres unmarked) [Compound 3a, 10-Methoxy 1,5-dichloro-9(10 H)-anthracenone]			7 ± 0.1%			2.9 µM	more toxic in CHO than mitoxantrone	23.5 µM	8.8 µM			
CCOC1c2cccc(Cl)c2C(=O)c2cccc(Cl)c21 (centres unmarked) [Compound 3b, 10-Ethoxy 1,5-dichloro-9(10 H)-anthracenone]			7 ± 0.1%			5.8 µM		21.8 µM	6.1 µM			
CCCOC1c2cccc(Cl)c2C(=O)c2cccc(Cl)c21 (centres unmarked) [Compound 3c, 10-Propyloxy 1,5-dichloro-9(10 H)-anthracenone]			29 ± 2.5%			42 µM		11.1 µM	1.8 µM			
CC(C)OC1c2cccc(Cl)c2C(=O)c2cccc(Cl)c21 (centres unmarked) [Compound 3d, 10-(2-Propyloxy) 1,5-dichloro-9(10 H)-anthracenone]			13 ± 1.3%			15.2 µM		65.4 µM	21.8 µM			
CCCCOC1c2cccc(Cl)c2C(=O)c2cccc(Cl)c21 (centres unmarked) [Compound 3e, 10-(Butyloxy) 1,5-dichloro-9(10 H)-anthracenone]			31 ± 3.7%			8 µM		29.5 µM	29.5 µM			
CC(C)COC1c2cccc(Cl)c2C(=O)c2cccc(Cl)c21 (centres unmarked) [Compound 3f, 10-(iso-Butyloxy) 1,5-dichloro-9(10 H)-anthracenone]			38 ± 3.1%			20.1 µM		43.2 µM	14.7 µM			
O=C1c2cccc(Cl)c2C(OCc2ccccc2)c2cccc(Cl)c21 (centres unmarked) [Compound 3g, 10-Benzyloxy 1,5-dichloro-9(10 H)-anthracenone]			16 ± 1.5%			24.7 µM		18.5 µM	93.4 µM			
CCN(CC)C1c2cccc(Cl)c2C(=O)c2cccc(Cl)c21 (centres unmarked) [Compound 4a, 10-Diethylamino 1,5-dichloro-9(10 H)-anthracenone]			12 ± 1.4%			15 µM		7.5 µM	17.2 µM	high cytotoxicity and significant activity		
Cc1cccc(NC2c3cccc(Cl)c3C(=O)c3cccc(Cl)c32)c1 (centres unmarked) [Compound 4b, 10-(m-Toluidino) 1,5-dichloro-9(10 H)-anthracenone]	23 ± 2.4%	92 ± 4.1%	100%	100%	100%	6.2 µM		11.2 µM	9.5 µM		significantly more efficient	better inhibitory effect
Cc1ccccc1NC1c2cccc(Cl)c2C(=O)c2cccc(Cl)c21 (centres unmarked) [Compound 4c, 10-(o-Toluidino) 1,5-dichloro-9(10 H)-anthracenone]			73 ± 3.5%			3.8 µM	more toxic in CHO than mitoxantrone	2.4 µM	3.4 µM	high cytotoxicity and significant activity		
Cc1ccc(NC2c3cccc(Cl)c3C(=O)c3cccc(Cl)c32)cc1 (centres unmarked) [Compound 4d, 10-(p-Toluidino) 1,5-dichloro-9(10 H)-anthracenone]	33 ± 2.7%	94 ± 3.5%	100%	100%	100%	3 µM	more toxic in CHO than mitoxantrone	4.6 µM	11.3 µM	high cytotoxicity and significant activity	significantly more efficient	better inhibitory effect
O=C1O[C@H]([C@@H](O)CO)C(O)=C1O [ascorbic acid, reference compound]	7 ± 0.5%	22 ± 2.2%	87 ± 3.1%	87 ± 2.5%	100%							
O=C1c2c(O)ccc(O)c2C(=O)c2c(NCCNCCO)ccc(NCCNCCO)c21 [mitoxantrone-HCl, reference compound]	10 ± 1.1%	52 ± 3.5%	64 ± 2.8%	64 ± 2.1%	100%	4 µM		1.5 µM	1.7 µM			

— US6596774B1, “Synthesis, lipid peroxidation and cytotoxic evaluation of 10-substituted 1,5-dichloro-9(10H)-anthracenone derivatives” (priority 2001, dated 2003)
